# From patent US20240307283A1, “COMPOSITIONS AND METHODS FOR DECREASING PIGMENTATION” (The General Hospital Corporation, priority 2021, published 2024)
# How the values were obtained:
# [1] = system: primary human melanocytes; assay: Intracellular melanin content of primary human melanocytes with NNT inhibitors; format: cell-based; conditions: FIG. 10D
# From the text: Primary human melanocytes were isolated from normal discarded foreskins and were established in TIVA medium as described previously (Khaled et al., 2010) or in Medium 254 (Life Technologies, #M254500) (Allouche et al., 2015). Human melanoma cell line UACC257 (sex unspecified) was obtained from the National Cancer Institute (NCI), Frederick Cancer Division of Cancer Treatment and Diagnosis (DCTD) Tumor Cell Line Repository. SK-MEL-30 ([…]) human melanoma cell line was from Memorial Sloan Kettering Cancer Center. Both melanoma cell lines have been authenticated by our lab using ATCC's STR profiling service. UACC257 and SK-MEL-30 cells were cultured in DMEM and RPMI medium (Life Technologies, #11875119) respectively, supplemented with 10% fetal bovine serum and 1% penicillin/streptomycin/L-glutamine in a humidified atmosphere of 95% air and 5% CO2 at 37° C.
# (§1) In vitro culture with NNT inhibitors: 2,3-Butanedione 97% (2,3 BD) (Sigma Aldrich, #B85307) (1 μM, 10 μM, 100 μM, 2 mM), N,N-Dicyclohexylcarbodiimide (DCC) (Sigma Aldrich, #D80002) (1 mM, 2 mM, 10 mM), and Palmitoyl coenzyme A lithium salt (Sigma Aldrich, #P9716) (10 μM, 2 mM) were reconstituted with DMSO (American Type Culture Collection, 4-X).
# (§2) Melanin quantification: Equal numbers of cells were plated in 6-well plates. The cells were then harvested 72-96 hours post siRNA or NNT inhibitors compounds, as indicated in the legends, pelleted, washed in PBS and counted. 10^6 cells were used for measurement of protein concentration with the Pierce BCA protein assay (Thermo Fisher Scientific, #23225) and 10^6 cells were resuspended in 60 μl of 1 N NaOH solution and incubated at 60° C. for 2 h or until the melanin was completely dissolved. After cooling down to room temperature, samples were centrifuged at 500×g for 10 min and the supernatants were loaded onto a 96-well plate. The melanin content was determined by measuring the absorbance at 405 nm on an Envision plate reader, compared with a melanin standard (0 to 50 μg/ml; Sigma Aldrich, #M8631). Melanin content was expressed as micrograms per milligram of protein.
# human skin = assay: UVB-induced DNA damage (CPD, γ-H2AX) in human skin; format: cell-based; conditions: 50 mM for 5 days
# Method: Skin samples considered surgical waste were obtained de-identified from healthy donors (IRB #2013P000093) undergoing reconstructive surgery, according to institutional regulations. Full thickness human abdominal skin explants were cultured in petri dishes with a solid phase and liquid phase phenol red free DMEM medium containing 20% penicillin/streptomycin/glutamine, 5% fungizone (Gibco), and 10% fetal bovine serum. Compounds were applied strictly on top of the explants, making sure no drip occurred into the underlying media. For UV irradiation experiments, a UV lamp (UV Products) was used at 1000 mJ/cm^2 UVB. For immunofluorescence, paraffin sections were deparaffinized by xylene and rehydrated gradually with ethanol to distilled water. Sections were submerged in 0.01 M citrate buffer and boiled for 10 min for retrieval of antigen. The sections were washed with TBST (0.1% Tween 20) and blocked with protein blocking solution (Agilent, #X090930-2) for 1 h at room temperature before application of primary antibody [1:100 diluted in Antibody Diluent (DAKO, #S3022)] and incubation overnight at 4° C. The following day, sections were washed with TBST three times and incubated with secondary antibody Alexa Fluor 647 goat anti-mouse IgG (G+L) (ThermoFisher Scientific, #A-21236), Alexa Fluor 594 F(ab)2 fragment of goat anti-rabbit IgG (G+L) (ThermoFisher Scientific, #A-11072), or Alexa Fluor 555 goat anti-rabbit IgG (ThermoFisher Scientific, #A-21428). After washing, the tissue sections were cover-slipped with mounting medium (SlowFade® Gold Antifade Reagent with DAPI, ThermoFisher Scientific, #S36939). MaxBlock Autofluorescence Reducing Reagent Kit (MaxVision Biosciences, #MB-L) was used to quench skin tissue autofluorescence according to the reagent instructions. […]
# murine Melan-A cells = assay: Melanin content of Melan-A cells with NNT inhibitors; format: cell-based, mouse; conditions: 2 mM, FIG. 3A
# Method: Murine Melan-A (Bennett et al., 1987) cells were obtained from the Wellcome Trust Functional Genomics Cell Bank. Melan-A cells were grown in RPMI 1640 supplemented with 10% FBS or FetalPlex (Gemini Bio-Products, #100-602), 100,000 U/L penicillin, 100 mg/L streptomycin sulphate, 100× Glutamax, and 200 nM TPA.
# as §1, §2
# primary melanocytes = assay: Cell viability of primary melanocytes, different doses; format: cell-based, human; conditions: FIG. 10C
# Method: Cell viability assay: Human melanoma cell lines and isolated primary cultured human melanocytes were propagated and tested in early passage (Passages 7 to 9). The effects of NNT inhibitors (2,3BD, DCC, and Palmitoyl coenzyme A lithium salt) on cell viability were evaluated by the CellTiter-Glo Luminescent Cell Viability Assay (Promega, #G7570) and measurement of luminescence was performed on an EnVision 2104 Multilabel Reader (PerkinElmer). Human melanoma cell lines and primary melanocytes were plated on 96-well white plates (10,000 cells/well) and were treated with the NNT inhibitors at the indicated concentrations for 24 h.
# [2] = system: Zebrafish overexpressing NNT (NNT OE); assay: 2,3BD treatment of zebrafish overexpressing NNT; format: in vivo; conditions: 100 μM for 24 hours, FIG. 11C
# Method: The human NNT gene was cloned into the MiniCoopR expression plasmid to allow melanocyte-specific overexpression of NNT (Ceol et al., 2011). The mcr:NNT plasmid was injected into Tubingen zebrafish embryos at the single cell stage and incorporated into the genome through the use of Tol2 transgenesis. Larvae were raised for 5 days and then at least three images were obtained and quantified using a Nikon SMZ18 Stereomicroscope. At least 5 zebrafish embryos of each group were analyzed after 5 days using the […] software enabling pixel-based color quantification. Wildtype Tübingen zebrafish were placed in a 24 well plate at 72 hours post-fertilization, with 10 larvae per well for a total twenty larvae per condition. Larvae were treated for 24 hours with either 2,3BD (1 μM, 10 μM, 100 μM, 1 mM; Sigma Aldrich, #B85307), DCC (1 μM, 10 μM, 50 μM, 100 μM; Sigma Aldrich, #D80002), or DMSO (1:500) in E3 embryo medium. At 4 days post fertilization, larvae were imaged using a Nikon SMZ18 Stereomicroscope. Melanocytes from at least 5 zebrafish embryos of each group for each experiment were analyzed using the FIJI software enabling pixel-based color quantification.
smiles,measurement,setting,value
"CC(=O)C(C)=O [2,3BD, 2,3-Butanedione]",intracellular melanin content,[1]; 2.3 BD 2 mM for 72 hours,significantly increased the intracellular melanin content
same,melanin on simultaneous treatment with siNNT,"[1]; siNNT plus 2,3 BD",did not further increase the melanin
same,toxicity by γ-H2AX,human skin,non-toxic
same,UVB-induced CPD formation,"human skin; skin type 2-3, then 1000 mJ/cm^2 UVB",protected against formation of UVB-induced CPD
same,UVB-induced γ-H2AX induction,human skin; then UVB,could protect human skin from UVB-induced γ-H2AX induction
same,melanin content,murine Melan-A cells,increased melanin content
same,cell viability,"primary melanocytes; different doses, relative to vehicle",no impacts on cell viability
same,in vitro toxicity,"primary melanocytes; doses up, primary melanocytes",no significant toxicity
same,melanocytic pigmentation of NNT overexpressing fish,[2],prevented the NNT OE-induced decrease in melanocytic pigmentation
